The target in assay [1] is T1, Cyclin-dependent kinase 1/cyclin B1 (Homo sapiens, UniProt P06493+P14635). Put plainly: Inhibition of Cyclin dependent kinase 1-cyclin B1 from starfish oocytes at 10 uM. The note with it: Asteroidea, Oocyte.
Assay [2] deals with T2, Cyclin-dependent kinase 2/cyclin A (Homo sapiens) (UniProt P24941+P20248+P78396). The assay can be described thus: Inhibition of human Cyclin-dependent kinase 2 cyclin A3 at 10 uM. The class given is protein-complex assay.
In assay [3] the target is T2, Cyclin-dependent kinase 2/cyclin A (Homo sapiens). The assay can be described thus: Inhibition of human Cyclin-dependent kinase 2 cyclin A3 at 100 uM. The format is protein-complex assay.
For assay [4], the target named is T1, Cyclin-dependent kinase 1/cyclin B1. Put plainly: Inhibition of Cyclin dependent kinase 1-cyclin B1 from starfish oocytes at 100 uM. The note with it: Asteroidea, Oocyte.
The target in assay [5] is Cyclin-dependent kinase 2/cyclin A (Homo sapiens, UniProt P24941). The assay can be described thus: Inhibition of human Cyclin-dependent kinase 2 cyclin A3 at 12.5 uM ATP. The format is protein-complex assay.

Here are results for 20 molecules from ChEMBL document CHEMBL1136262, “4-Alkoxy-2,6-diaminopyrimidine derivatives: inhibitors of cyclin dependent kinases 1 and 2” (Bioorg Med Chem Lett, 2003).

T1 sequence (P06493 whole entry, looked up): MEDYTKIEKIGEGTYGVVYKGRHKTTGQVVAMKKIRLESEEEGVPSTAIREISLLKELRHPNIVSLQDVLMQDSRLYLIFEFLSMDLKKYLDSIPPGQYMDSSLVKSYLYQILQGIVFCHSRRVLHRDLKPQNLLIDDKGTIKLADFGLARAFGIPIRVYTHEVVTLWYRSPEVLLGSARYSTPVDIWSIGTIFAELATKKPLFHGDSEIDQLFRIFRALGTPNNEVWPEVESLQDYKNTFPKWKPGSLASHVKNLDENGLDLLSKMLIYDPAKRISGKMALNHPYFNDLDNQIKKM
T1 sequence (P14635 whole entry, looked up): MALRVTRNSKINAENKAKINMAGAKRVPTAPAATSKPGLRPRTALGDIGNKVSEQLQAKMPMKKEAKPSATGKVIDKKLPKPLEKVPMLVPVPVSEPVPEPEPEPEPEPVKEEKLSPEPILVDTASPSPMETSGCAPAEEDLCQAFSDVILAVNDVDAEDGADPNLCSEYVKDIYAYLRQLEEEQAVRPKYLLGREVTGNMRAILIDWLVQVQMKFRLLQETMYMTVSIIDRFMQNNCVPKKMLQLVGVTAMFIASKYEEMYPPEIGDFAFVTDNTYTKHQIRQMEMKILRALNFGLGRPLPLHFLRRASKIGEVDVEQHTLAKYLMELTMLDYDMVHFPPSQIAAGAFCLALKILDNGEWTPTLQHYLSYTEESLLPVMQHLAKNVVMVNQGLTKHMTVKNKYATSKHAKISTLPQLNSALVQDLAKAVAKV

The term inhibition denotes the change of the read-out against control, counted positive when it falls. With `CCCCCCCOc1nc(N)nc(N)c1N=O`, the inhibition in assay [1] is 17%; in assay [2], 22%. With `Nc1cc(OCC2CCCCC2)nc(N)n1`, the inhibition was 4% in assay [1] and 7% in assay [2]. As for `Nc1nc(N)c(C(=O)c2ccccc2)c(OCC2CCCCC2)n1`, the inhibition is 21% in assay [1] and 6% in assay [2]. As to `Nc1nc(N)c(/C=N/O)c(OCC2CCCCC2)n1`, the figures for the inhibition in assay [3] and in assay [4] were 37% and 25%, respectively. As usually defined, the IC50 is the concentration needed to halve the response being measured. Low values mean higher potency, high ones lower potency. Regarding `Nc1nc(N)c(N=O)c(OCC2CC=CCC2)n1` (configuration not stated), 5 µM corresponded to half-maximal inhibition in assay [5] (IC50). That is a single-digit micromolar value. `Nc1nc(N)c(N=O)c(OC[C@@H]2NCCC2=O)n1` came in with a half-inhibitory concentration (IC50) in assay [5] of 65 µM.

As for `Nc1nc(Nc2ccccc2)c(N=O)c(OCC2CCCCC2)n1`, the inhibition was 47% in assay [3] and 23% in assay [4]. On to `Nc1nc(N)c(C=O)c(OCC2CCCCC2)n1`, for which the figures for the inhibition in assay [1] and in assay [2] were 35% and 43%, respectively. As for `Nc1nc(NC(=O)OCc2ccccc2)c(N=O)c(OCC2CCCCC2)n1`, the values for the inhibition in assay [1] and in assay [2] were 14% and 11%, respectively. In the case of `COC(=O)Nc1nc(N)nc(OCC2CCCCC2)c1N=O`, the inhibition turned out to be 6% in assay [3] and 8% in assay [4].

For the molecule `NC(=O)N/N=C/c1c(N)nc(N)nc1OCC1CCCCC1`, the inhibition was 44% in assay [3] and 61% in assay [4]. The like results for `Nc1nc(N)c(C(O)c2ccccc2)c(OCC2CCCCC2)n1` (configuration not stated) were, in that order, 12% and 4%. On to `Nc1cc(OCC2CC=CCC2)nc(N)n1` (configuration not stated), for which the figures for the inhibition in assay [1] and in assay [2] were 16% and 8%, respectively. For the molecule `Nc1nc(N)c(N=O)c(OCc2ccccc2)n1`, the IC50 in assay [5] came out at 27 µM. With `CC(=O)Nc1nc(N)nc(OCC2CCCCC2)c1N=O`, the results for the inhibition in assay [3] and in assay [4] were 28% and 36%, respectively. For `CCCCCOc1nc(N)nc(N)c1N=O`, the inhibition stood at 35% in assay [1] and 36% in assay [2]. Turning to `Nc1nc(N)c(/C=N/OCc2ccccc2)c(OCC2CCCCC2)n1`, the inhibition is 5% in assay [1] and 3% in assay [2]. As for `CO/N=C/c1c(N)nc(N)nc1OCC1CCCCC1`, the inhibition in assay [1] and in assay [2] was 13% each time.

As for `Nc1nc(N)c(N)c(OCC2CCCCC2)n1`, the inhibition stood at 52% in assay [3] and 40% in assay [4]. For the molecule `COc1ccc(Nc2nc(N)nc(OCC3CCCCC3)c2N=O)cc1`, the inhibition was 8% in assay [3] and 7% in assay [4].
